The NIST ThermoML archive (doi:10.1021/je900387e)

Test: xn = mol fraction of the nth substance listed
Settings: Liquid, Pycnometric method

CCCCCl [1-chlorobutane] + O=C=O
Settings | mass density [kg/m3]
313.1 K, 10970 kPa, x1 = 0.0744 | 828
313.1 K, 11030 kPa, x1 = 0.0243 | 763
313.1 K, 11220 kPa, x1 = 0.0483 | 800
313.1 K, 11230 kPa, x1 = 0.0981 | 855
313.1 K, 11350 kPa, x1 = 0.0744 | 833
313.1 K, 11500 kPa, x1 = 0.1488 | 870
313.1 K, 11510 kPa, x1 = 0.0483 | 806
313.1 K, 11780 kPa, x1 = 0.0744 | 839
313.1 K, 11810 kPa, x1 = 0.0483 | 811
313.1 K, 11820 kPa, x1 = 0.0981 | 862
313.1 K, 12110 kPa, x1 = 0.0483 | 816
313.1 K, 12170 kPa, x1 = 0.1488 | 875
313.1 K, 12220 kPa, x1 = 0.0744 | 844
313.1 K, 12430 kPa, x1 = 0.0744 | 847
313.1 K, 12440 kPa, x1 = 0.0981 | 869
313.1 K, 12540 kPa, x1 = 0.1488 | 878
313.1 K, 12780 kPa, x1 = 0.0981 | 872
313.1 K, 12890 kPa, x1 = 0.1488 | 880
313.1 K, 13000 kPa, x1 = 0.0981 | 874
313.1 K, 13240 kPa, x1 = 0.1488 | 883
313.1 K, 13660 kPa, x1 = 0.1488 | 885
313.1 K, 14020 kPa, x1 = 0.1488 | 888
313.1 K, 14460 kPa, x1 = 0.1488 | 890
313.1 K, 14830 kPa, x1 = 0.1488 | 893
314.5 K, 8320 kPa, x1 = 0.0243 | 495
314.5 K, 8330 kPa, x1 = 0.0243 | 501
314.5 K, 8360 kPa, x1 = 0.0243 | 510
314.5 K, 8390 kPa, x1 = 0.0243 | 522
314.5 K, 8430 kPa, x1 = 0.0243 | 531
314.5 K, 8460 kPa, x1 = 0.0243 | 541
314.5 K, 8490 kPa, x1 = 0.0243 | 552
314.5 K, 8530 kPa, x1 = 0.0243 | 562
314.5 K, 8590 kPa, x1 = 0.0243 | 575
314.5 K, 8650 kPa, x1 = 0.0243 | 588
314.5 K, 8720 kPa, x1 = 0.0243 | 602
314.5 K, 8820 kPa, x1 = 0.0243 | 617
314.5 K, 8930 kPa, x1 = 0.0243 | 632
314.5 K, 9080 kPa, x1 = 0.0243 | 648
314.5 K, 9270 kPa, x1 = 0.0243 | 664
314.5 K, 9480 kPa, x1 = 0.0243 | 680
314.5 K, 9790 kPa, x1 = 0.0243 | 698
314.5 K, 10150 kPa, x1 = 0.0243 | 715
314.5 K, 10480 kPa, x1 = 0.0243 | 729
314.5 K, 10730 kPa, x1 = 0.0243 | 738
314.5 K, 11030 kPa, x1 = 0.0243 | 748
314.5 K, 11370 kPa, x1 = 0.0243 | 758
314.5 K, 11740 kPa, x1 = 0.0243 | 767
317.9 K, 7340 kPa, x1 = 0.1488 | 805
317.9 K, 7730 kPa, x1 = 0.0981 | 761
317.9 K, 7740 kPa, x1 = 0.1488 | 811
317.9 K, 7900 kPa, x1 = 0.0981 | 766
317.9 K, 8050 kPa, x1 = 0.0744 | 713
317.9 K, 8060 kPa, x1 = 0.1488 | 815
317.9 K, 8090 kPa, x1 = 0.0981 | 771
317.9 K, 8230 kPa, x1 = 0.0744 | 720
317.9 K, 8310 kPa, x1 = 0.0981 | 777
317.9 K, 8360 kPa, x1 = 0.0744 | 727
317.9 K, 8450 kPa, x1 = 0.1488 | 820
317.9 K, 8520 kPa, x1 = 0.0744 | 733
317.9 K, 8530 kPa, x1 = 0.0483 | 630
317.9 K, 8530 kPa, x1 = 0.0981 | 782
317.9 K, 8560 kPa, x1 = 0.0243 | 417
317.9 K, 8590 kPa, x1 = 0.0243 | 423
317.9 K, 8590 kPa, x1 = 0.0483 | 636
317.9 K, 8630 kPa, x1 = 0.0243 | 433
317.9 K, 8670 kPa, x1 = 0.0243 | 443
317.9 K, 8690 kPa, x1 = 0.0483 | 646
317.9 K, 8690 kPa, x1 = 0.0744 | 740
317.9 K, 8720 kPa, x1 = 0.0243 | 453
317.9 K, 8750 kPa, x1 = 0.0243 | 464
317.9 K, 8770 kPa, x1 = 0.0981 | 787
317.9 K, 8790 kPa, x1 = 0.0243 | 473
317.9 K, 8810 kPa, x1 = 0.0483 | 656
317.9 K, 8830 kPa, x1 = 0.1488 | 823
317.9 K, 8850 kPa, x1 = 0.0243 | 484
317.9 K, 8880 kPa, x1 = 0.0744 | 746
317.9 K, 8890 kPa, x1 = 0.0243 | 496
317.9 K, 8940 kPa, x1 = 0.0243 | 507
317.9 K, 8940 kPa, x1 = 0.0483 | 667
317.9 K, 8990 kPa, x1 = 0.0243 | 520
317.9 K, 9050 kPa, x1 = 0.0981 | 793
317.9 K, 9060 kPa, x1 = 0.0243 | 534
317.9 K, 9080 kPa, x1 = 0.0483 | 678
317.9 K, 9110 kPa, x1 = 0.0744 | 753
317.9 K, 9140 kPa, x1 = 0.0243 | 549
317.9 K, 9200 kPa, x1 = 0.0483 | 689
317.9 K, 9230 kPa, x1 = 0.0243 | 565
317.9 K, 9240 kPa, x1 = 0.1488 | 828
317.9 K, 9340 kPa, x1 = 0.0243 | 582
317.9 K, 9350 kPa, x1 = 0.0981 | 799
317.9 K, 9360 kPa, x1 = 0.0744 | 760
317.9 K, 9460 kPa, x1 = 0.0243 | 599
317.9 K, 9490 kPa, x1 = 0.0483 | 701
317.9 K, 9580 kPa, x1 = 0.0243 | 615
317.9 K, 9600 kPa, x1 = 0.0744 | 766
317.9 K, 9650 kPa, x1 = 0.0981 | 804
317.9 K, 9660 kPa, x1 = 0.1488 | 832
317.9 K, 9740 kPa, x1 = 0.0243 | 630
317.9 K, 9770 kPa, x1 = 0.0483 | 713
317.9 K, 9840 kPa, x1 = 0.0243 | 639
317.9 K, 9890 kPa, x1 = 0.0744 | 773
317.9 K, 9950 kPa, x1 = 0.0243 | 647
317.9 K, 10010 kPa, x1 = 0.0981 | 810
317.9 K, 10030 kPa, x1 = 0.0243 | 654
317.9 K, 10090 kPa, x1 = 0.0483 | 725
317.9 K, 10090 kPa, x1 = 0.1488 | 836
317.9 K, 10220 kPa, x1 = 0.0744 | 780
317.9 K, 10350 kPa, x1 = 0.0483 | 734
317.9 K, 10350 kPa, x1 = 0.0981 | 815
317.9 K, 10560 kPa, x1 = 0.0744 | 787
317.9 K, 10580 kPa, x1 = 0.1488 | 841
317.9 K, 10650 kPa, x1 = 0.0483 | 742
317.9 K, 10750 kPa, x1 = 0.0981 | 822
317.9 K, 10940 kPa, x1 = 0.0744 | 794
317.9 K, 10970 kPa, x1 = 0.0483 | 752
317.9 K, 11090 kPa, x1 = 0.1488 | 847
317.9 K, 11180 kPa, x1 = 0.0981 | 827
317.9 K, 11340 kPa, x1 = 0.0483 | 761
317.9 K, 11370 kPa, x1 = 0.0744 | 802
317.9 K, 11620 kPa, x1 = 0.1488 | 851
317.9 K, 11670 kPa, x1 = 0.0981 | 834
317.9 K, 11740 kPa, x1 = 0.0483 | 770
317.9 K, 11860 kPa, x1 = 0.0744 | 810
317.9 K, 11940 kPa, x1 = 0.1488 | 853
317.9 K, 12140 kPa, x1 = 0.0981 | 839
317.9 K, 12220 kPa, x1 = 0.0483 | 780
317.9 K, 12240 kPa, x1 = 0.1488 | 856
317.9 K, 12370 kPa, x1 = 0.0744 | 817
317.9 K, 12520 kPa, x1 = 0.1488 | 858
317.9 K, 12690 kPa, x1 = 0.0981 | 846
317.9 K, 12740 kPa, x1 = 0.0483 | 790
317.9 K, 12850 kPa, x1 = 0.1488 | 861
317.9 K, 12930 kPa, x1 = 0.0744 | 825
317.9 K, 13140 kPa, x1 = 0.1488 | 863
317.9 K, 13250 kPa, x1 = 0.0981 | 852
317.9 K, 13320 kPa, x1 = 0.0483 | 800
317.9 K, 13440 kPa, x1 = 0.1488 | 865
317.9 K, 13510 kPa, x1 = 0.0744 | 833
317.9 K, 13620 kPa, x1 = 0.0483 | 805
317.9 K, 13800 kPa, x1 = 0.1488 | 868
317.9 K, 13830 kPa, x1 = 0.0981 | 859
317.9 K, 13950 kPa, x1 = 0.0483 | 811
317.9 K, 14180 kPa, x1 = 0.0744 | 841
317.9 K, 14190 kPa, x1 = 0.1488 | 871
317.9 K, 14300 kPa, x1 = 0.0483 | 816
317.9 K, 14480 kPa, x1 = 0.1488 | 873
317.9 K, 14530 kPa, x1 = 0.0981 | 865
317.9 K, 14860 kPa, x1 = 0.1488 | 875
317.9 K, 14910 kPa, x1 = 0.0744 | 849
317.9 K, 15220 kPa, x1 = 0.0981 | 872
322.7 K, 7900 kPa, x1 = 0.1488 | 782
322.7 K, 8140 kPa, x1 = 0.1488 | 786
322.7 K, 8330 kPa, x1 = 0.0981 | 728
322.7 K, 8380 kPa, x1 = 0.1488 | 789
322.7 K, 8510 kPa, x1 = 0.0981 | 734
322.7 K, 8620 kPa, x1 = 0.0243 | 328
322.7 K, 8620 kPa, x1 = 0.0981 | 739
322.7 K, 8630 kPa, x1 = 0.0744 | 669
322.7 K, 8670 kPa, x1 = 0.1488 | 794
322.7 K, 8690 kPa, x1 = 0.0243 | 336
322.7 K, 8740 kPa, x1 = 0.0744 | 675
322.7 K, 8750 kPa, x1 = 0.0243 | 343
322.7 K, 8780 kPa, x1 = 0.0981 | 744
322.7 K, 8810 kPa, x1 = 0.0243 | 351
322.7 K, 8860 kPa, x1 = 0.0243 | 360
322.7 K, 8860 kPa, x1 = 0.0744 | 683
322.7 K, 8920 kPa, x1 = 0.0243 | 368
322.7 K, 8940 kPa, x1 = 0.0981 | 749
322.7 K, 8970 kPa, x1 = 0.1488 | 798
